Here are results for five compounds from US20230181540A1, “COMPOSITIONS AND METHODS FOR ACTIVATING SIGNALING THROUGH THE CB2 CANNABINOID RECEPTOR FOR TREATING AND PREVENTING LYSOSOMAL STORAGE DISEASES AND DISORDERS” (Wylder Nation Foundation, priority 2020, published 2023).

Entries after “also recorded” stand apart in the source; their conditions may differ.

In assay [1] the test system is MCP-1. The experiment in a line: MCP-1 released into culture media by skin fibroblasts from a patient with MPS IIIA (ELISA). In kind it is cell-based, human. The note with it: 3.2 micromoles/ml, 72 or 96 hr, vs cultures without drug, p < 0.01. How it is done:
Skin fibroblasts from a patient with MPS IIIA were grown to ~70% confluency and the CB2 agonists JHW133 and PM226 were added to the culture media for 72 or 96 hr at a dose of 3.2 micromoles/ml (black and gray bars, respectively). Control: cultures without drug added (white bars). […] Bar heights indicate the mean values from three independent experiments. Vertical lines indicate the standard error of the mean. * = p < 0.01 comparing with and without drug.
A general note: An ELISA detects its analyte on a solid surface through an enzyme-linked reagent.

The subject of assay [2] is mouse model of Sanfilippo disease (mucopolysaccharidosis IIIA). Conditions: cited from earlier work.
Assay [3] concerns MCP-1. The experiment in a line: MCP-1 expression in liver and plasma of Farber disease mice. The format is in vivo, mouse. Conditions: 5 mg/kg i.p. 3x a week for 6 weeks, vs untreated Farber mice. As to the method: Ten 2.5-week-old Farber disease mice were treated 3x a week by intraperitoneal injection of JWH133 at a dose of 5 mg/kg. After 6 weeks the 8.5-week-old mice were euthanized and their organs and plasma collected and processed for immunohistochemical analysis of MCP-1 expression. […] Thus, CB2 agonists, such as JWH133, can be used to treat Farber disease and other lysosomal storage disorders (* = p<0.01).

The next assay deals with CB2. The experiment in a line: Immunohistochemical analysis of CB2 expression in organs of Farber disease mice. Conditions: 5 mg/kg i.p. 3x a week for 6 weeks, 8.5-week-old, vs untreated Farber mice. The format is in vivo, mouse. How it is done:
Ten 2.5-week-old Farber disease mice were treated once weekly with recombinant acid ceramidase by intraperitoneal injection at a dose of 10 mg/kg. After 6 injections the 8.5-week-old mice were euthanized and their organs collected and processed for immunohistochemical analysis of CB2 expression. […] Thus, CB2 can be used as a biomarker to monitor the efficacy of treatment for Farber disease and other lysosomal storage disorders.
Ten 2.5-week-old Farber disease mice were treated 3x a week by intraperitoneal injection of JWH133 at a dose of 5 mg/kg. After 6 weeks the 8.5-week-old mice were euthanized and their organs collected and processed for immunohistochemical analysis of CB2 expression. […] Thus, CB2 agonists, such as JWH133, can be used to treat Farber disease and other lysosomal storage disorders.

The next assay concerns Farber mice. Briefly: Survival and body weight of Farber mice treated with CB2 agonist.
The subject of assay [4] is mouse model of Niemann-Pick diseases type C1 (NPC1). Conditions: cited from earlier work.

Description for Farber mice: Two Farber mouse groups were studied (n=12 mice per group). […] In the control group they were injected with DMSO alone. Weight was monitored daily.

For the compound `CCCCCCC(C)(C)c1cc(OC)c2c(c1)OC(C)(C)c1cnoc1-2` [PM226], the “levels of MCP-1 released into the culture media” value in the assay on MCP-1 [1] is “able to reduce the levels of MCP-1 released into the culture media”.
Consider pentosan polysulfate [PPS], for which the CNS pathology entry in assay [2] (mouse model of MPS IIIA, attributed to systemic effects) was “some improvements in CNS pathology were noted”.
On to `CCCC(C)(C)c1ccc2c(c1)OC(C)(C)[C@@H]1CC=C(C)C[C@@H]21` [JWH133], for which the “MCP-1 expression in the liver” value in the assay on MCP-1 [3] was “significantly reduced”. In addition, the “MCP-1 expression in plasma” value in the assay on MCP-1 [3] (p<0.01) was “significantly reduced”. For the same compound, the “CB2 expression (immunohistochemistry)” value with CB2 is given as “significantly reduced”. For the same compound, the “day of natural death in the treatment group” value in the assay with Farber mice (Farber mice, 5 mg/kg i.p. three times a week from 2 weeks of age) is 47 days. Further, in the assay with Farber mice (Farber mice, 5 mg/kg i.p. three times a week in DMSO from 2 weeks of age, vs vehicle control (all dead by day 44)), the “survival / life span” value was “survived longer than vehicle control treated mice”. Moreover, the body weight result in the assay with Farber mice (Farber mice, 5 mg/kg i.p. three times a week, throughout the study, vs vehicle alone, 5 mg/kg) is given as “significantly greater; also recorded: significant prevention of weight loss”. Besides, in the assay on Farber mice (of 12 Farber mice, 5 mg/kg i.p. three times a week, remaining 11 euthanized at day 58), the “number of mice that died naturally in the treatment group” value was determined as 1. For the same compound, the “levels of MCP-1 released into the culture media” value in the assay on MCP-1 [1] is on record as “able to reduce the levels of MCP-1 released into the culture media”.
In the case of `CC(C)Cc1ccc(C(C)C(=O)O)cc1` (centres unmarked) [ibuprofen], in assay [4] (high doses), the lifespan entry was “prolong the lifespan of the mice by about two weeks” and the “onset of clinical signs” value is reported as “modestly slow the onset of clinical signs”.
For the compound `CC(=O)Oc1ccccc1C(=O)O` [aspirin], in assay [2] (chronic treatment for 6 months with high doses), the “expression of inflammation-related genes” value is “normalize expression of some inflammation-related genes”. Also, the treatment efficacy entry in assay [4] is on record as “failed to show treatment efficacy”.
